Our source for the melting point values is US8802678B2, “Carbonylated (aza) cyclohexanes as dopamine D3 receptor ligands” (Bioprojet, priority 2006, dated 2014).

Molecules are shown by their SMILES.

Usually melting point stands for the temperature of the solid-liquid transition. Regarding `O=C(N[C@H]1CC[C@H](CCN2CCN(c3cccc(C(F)(F)F)c3F)CC2)CC1)C1=COCC1` [Example 497, 4,5-Dihydrofuran-3-carboxylic acid (4-{2-[4-(2-fluoro-3-trifluoromethylphenyl)piperazin-1-yl]ethyl}cyclohexyl) amide], the melting point stood at 192 °C. For `CCc1ccccc1N1CCN(CC[C@H]2CC[C@H](NC(=O)CCCC#N)CC2)CC1` [Example 286, 4-Cyano-N-(4-{2-[4-(2-ethylphenyl)piperazin-1-yl]ethyl}cyclohexyl)butanamide], the melting point stood at 124 °C. To `CC(F)(F)c1cccc(N2CCN(CC[C@H]3CC[C@H](NC(=O)CCCC#N)CC3)CC2)c1` [Example 314, 4-Cyano-N-[4-(2-{4-[3-(1,1-difluoroethyl)phenyl]piperazin-1-yl}ethyl)cyclohexyl]butanamide] belongs 179 °C; to `CC(=O)CCC(=O)N[C@H]1CC[C@H](CCN2CCN(c3cc(C(F)(F)F)cc(C(F)(F)F)c3)CC2)CC1` [Example 222, 4-Oxopentanoic acid (4-{2-[4-(3,5-bis-trifluoromethylphenyl)piperazin-1-yl]ethyl}cyclohexyl)amide], 172 to 174 °C. For `N#CCCCC(=O)N[C@H]1CC[C@H](CCN2CCN(c3cccc(C(F)(F)F)c3)CC2)CC1` [Example 161, 4-Cyano-N-(4-{2-[4-(3-trifluoromethylphenyl)piperazin-1-yl]ethyl}cyclohexyl)butanamide], the melting point stood at 149 °C. The molecule `N#CCC(=O)N[C@H]1CC[C@H](CCN2CCN(c3c(F)c(F)c(F)c(F)c3F)CC2)CC1` [Example 753, 2-Cyano-N-{4-[2-(4-pentafluorophenylpiperazin-1-yl)ethyl]cyclohexyl}acetamide] came in with a melting point of 202 °C. The molecule `CCOCC(=O)N[C@H]1CC[C@H](CCN2CCN(c3ccc(Cl)cc3)CC2)CC1` [Example 515, N-(4-{2-[4-(4-Chloro-phenyl)piperazin-1-yl]ethyl}-cyclohexyl)-2-ethoxyacetamide] returned a melting point of 154 °C. With `N#CCCCC(=O)N[C@H]1CC[C@H](CCN2CCN(c3ccc(C(F)(F)F)cc3)CC2)CC1` [Example 544, 4-Cyano-N-(4-{2-[4-(4-trifluoromethylphenyl)piperazin-1-yl]ethyl}cyclohexyl)butanamide], the melting point is 207 °C. Molecule `Cc1ccc(N2CCN(CC[C@H]3CC[C@H](NC(=O)C4=CCCC4)CC3)CC2)cc1C` [Example 507, Cyclopent-1-enecarboxylic acid (4-{2-[4-(3,4-dimethylphenyl)-piperazin-1-yl]ethyl}cyclohexyl) amide] returned a melting point of 201 °C. Consider `CCOCC(=O)N[C@H]1CC[C@H](CCN2CCN(c3ccc(C)c(C)c3)CC2)CC1` [Example 508, N-(4-{2-[4-(3,4-Dimethylphenyl)piperazin-1-yl]ethyl}cyclohexyl)-2-ethoxyacetamide], for which the melting point was 122 °C. The molecule `Cc1ccc(N2CCN(CC[C@H]3CC[C@H](NC(=O)C4=CCCC4)CC3)CC2)cc1Cl` [Example 491, Cyclopent-1-enecarboxylic acid (4-{2-[4-(3-chloro-4-methylphenyl)piperazin-1-yl]ethyl}cyclohexyl) amide] gave a melting point of 197 °C. `CSc1ccccc1N1CCN(CC[C@H]2CC[C@H](NC(=O)CCCC#N)CC2)CC1` [Example 236, 4-Cyano-N-(4-{2-[4-(2-methylsulfanylphenyl)piperazin-1-yl]ethyl}cyclohexyl)butanamide]: the melting point was 130 °C. `CC(=O)CN1CCC(CCN2CCN(c3cc(F)c(F)c(F)c3)CC2)CC1` [Example 697, 1-(4-{2-[4-(3,4,5-Trifluoro-phenyl)-piperazin-1-yl]ethyl}piperidin-1-yl)propan-2-one] had a melting point of 86 °C.

Molecule `CC(=O)CN1CCC(CCN2CCN(c3cccc(CC(C)C)c3)CC2)CC1.Cl.Cl` returned a melting point of 240 °C. `O=C(N[C@H]1CC[C@H](CCN2CCN(c3cccc(C(F)(F)F)c3)CC2)CC1)C1CCCO1` (stereo partly shown) [Example 40, Tetrahydrofuran-2-carboxylic acid (4-{2-[4-(3-trifluoromethylphenyl)piperazin-1-yl]ethyl}cyclohexyl)amide] gave a melting point of 135 °C. Consider `Cc1cccc(N2CCN(CC[C@H]3CC[C@H](NC(=O)C4CC=CC4)CC3)CC2)c1` [Example 379, Cyclopent-3-enecarboxylic acid {4-[2-(4-m-tolylpiperazin-1-yl)ethyl]cyclohexyl}], for which the melting point was determined as 200 °C. To `N#CCCCC(=O)N[C@H]1CC[C@H](CCN2CCN(c3ccc4c(c3)OCO4)CC2)CC1` [Example 365, N-{4-[2-(4-Benzo[1,3]dioxol-5-ylpiperazin-1-yl)ethyl]cyclohexyl}-4-cyanobutanamide] belongs 189 °C.

Molecule `N#CCCC(F)(F)C(=O)N[C@H]1CC[C@H](CCN2CCN(c3cccc(C(F)(F)F)c3F)CC2)CC1` [Example 460, 4-Cyano-2,2-difluoro-N-(4-{2-[4-(2-fluoro-3-trifluoromethyl-phenyl)piperazin-1-yl]ethyl}cyclohexyl)butanamide] had a melting point of 151 °C.

`N#CCCCC(=O)N[C@H]1CC[C@H](CCN2CCN(c3cc(C(F)(F)F)ccc3F)CC2)CC1` [Example 207, 4-Cyano-N-(4-{2-[4-(2-fluoro-5-trifluoromethylphenyl)piperazin-1-yl]ethyl}cyclohexyl)butanamide] came in with a melting point of 138 to 139 °C. `Cc1cc(C)cc(N2CCN(CC[C@H]3CC[C@H](NC(=O)CCCC#N)CC3)CC2)c1` [Example 249, 4-Cyano-N-(4-{2-[4-(3,5-dimethylphenyl)piperazin-1-yl]ethyl}cyclohexyl)butanamide] had a melting point of 169 °C. The molecule `N#CCC(=O)N[C@H]1CC[C@H](CCN2CCN(c3ccccc3Oc3ccccc3)CC2)CC1` [Example 245, 2-Cyano-N-(4-{2-[4-(2-phenoxyphenyl)piperazin-1-yl]ethyl}cyclohexyl)acetamide] displayed a melting point of 169 °C. Molecule `COc1ccc(C)cc1N1CCN(CCC2CCN(CC(C)=O)CC2)CC1.Cl.Cl` yielded a melting point of 260 °C.

Regarding `N#CCC(=O)N[C@H]1CC[C@H](CCN2CCN(c3ccc(Cl)c(Cl)c3F)CC2)CC1` [Example 519, 2-Cyano-N-(4-{2-[4-(3,4-dichloro-2-fluorophenyl)piperazin-1-yl]ethyl}cyclohexyl)acetamide], the melting point amounted to 237 °C. The molecule `CC(=O)CN1CCC(CCN2CCN(c3cccc4c3OCO4)CC2)CC1.Cl.Cl` registered a melting point of 264 °C. For the molecule `N#CCCCC(=O)N[C@H]1CC[C@H](CCN2CCN(c3ccc(Cl)cc3)CC2)CC1` [Example 479, N-(4-{2-[4-(4-Chlorophenyl)piperazin-1-yl]ethyl}cyclohexyl)-4-cyanobutanamide], the melting point worked out at 190 °C.

`CC(=O)CN1CCC(CCN2CCN(c3c(C)cccc3C)CC2)CC1.Cl.Cl` came in with a melting point of 249 °C. On to `N#CCC(=O)N[C@H]1CC[C@H](CCN2CCN(c3cccc(Cl)c3Cl)CC2)CC1` [Example 143, 2-Cyano-N-(4-{2-[4-(2,3-dichlorophenyl)piperazin-1-yl]ethyl}cyclohexyl)acetamide], for which the melting point stood at 188 °C. With `CCOc1ccccc1N1CCN(CC[C@H]2CC[C@H](NC(=O)CC#N)CC2)CC1` [Example 243, 2-Cyano-N-(4-{2-[4-(2-ethoxyphenyl)piperazin-1-yl]ethyl}cyclohexyl)acetamide], the melting point came to 138 °C. The molecule `N#CCCCC(=O)N[C@H]1CC[C@H](CCN2CCN(c3cc(F)cc(C(F)(F)F)c3)CC2)CC1` [Example 665, 4-Cyano-N-(4-{2-[4-(3-fluoro-5-trifluoromethylphenyl)piperazin-1-yl]ethyl}cyclohexyl)butanamide] had a melting point of 163 °C. As to `CC(=O)CN1CCC(CCN2CC=C(c3cccc(C)c3C)CC2)CC1.Cl.Cl`, the melting point turned out to be 310 °C. As to `CS(=O)(=O)CC(=O)N[C@H]1CC[C@H](CCN2CCN(c3cccc(C(F)(F)F)c3)CC2)CC1` [Example 337, 2-Methanesulfonyl-N-(4-{2-[4-(3-trifluoromethylphenyl)piperazin-1-yl]ethyl}cyclohexyl)acetamide], the melting point stood at 158 °C. The value for `COCC(=O)N[C@H]1CC[C@H](CCN2CCN(c3ccccc3OC)CC2)CC1` [Example 125, 2-Methoxy-N-(4-{2-[4-(2-methoxyphenyl)piperazin-1-yl]ethyl}cyclohexyl)acetamide] was 125 to 126 °C; that for `O=C(CC(F)(F)F)N[C@H]1CC[C@H](CCN2CCN(c3cccc(F)c3F)CC2)CC1` [Example 446, N-(4-{2-[4-(2,3-Difluorophenyl)piperazin-1-yl]ethyl}cyclohexyl)-3,3,3-trifluoropropanamide] was 220 °C; that for `Cl.Cl.O=C(N[C@H]1CC[C@H](CCN2CCN(c3ccc(F)cc3F)CC2)CC1)[C@@H]1CCCN1` (stereo in doubt) was 260 °C. For `N#CCC(=O)N[C@H]1CC[C@H](CCN2CCN(c3cccc(SC(F)(F)F)c3)CC2)CC1` [Example 343, 2-Cyano-N-(4-{2-[4-(3-trifluoromethylsulfanylphenyl)piperazin-1-yl]ethyl}cyclohexyl)-acetamide], the melting point was 165 °C. The value for `CC(=O)CN1CCC(CCN2CCN(c3ccc(F)c(C(F)(F)F)c3)CC2)CC1.Cl.Cl` was 266 °C; that for `Cc1ccccc1N1CCN(CC[C@H]2CC[C@H](NC(=O)CCCC#N)CC2)CC1` [Example 428, 4-Cyano-N-{4-[2-(4-o-tolylpiperazin-1-yl)ethyl]cyclohexyl}butanamide] was 160 °C. For the molecule `CCOc1cccc(N2CCN(CCC3CCN(CC(C)=O)CC3)CC2)c1.Cl.Cl`, the melting point was determined as 246 °C. As for `CS(=O)(=O)c1cccc(N2CCN(CC[C@H]3CC[C@H](NC(=O)CCC(F)(F)F)CC3)CC2)c1` [Example 469, 4,4,4-Trifluoro-N-(4-{2-[4-(3-methanesulfonylphenyl)piperazin-1-yl]ethyl}cyclohexyl)butanamide], the melting point turned out to be 205 °C. In turn, `N#CCC(=O)N[C@H]1CC[C@H](CCN2CCN(c3ccc(Cl)c(C(F)(F)F)c3)CC2)CC1` [Example 360, N-(4-{2-[4-(4-Chloro-3-trifluoromethylphenyl)piperazin-1-yl]ethyl}cyclohexyl)-2-cyanoacetamide] yielded a melting point of 187 °C.
